Laboratory results: patent US6130053A, “Method for selecting compounds for inhibition of neoplastic lesions” (priority 1999, dated 2000)
“Also recorded” adds a separate entry of the source. Like-named read-outs stand apart in the source and are kept apart here.

Columns and labels:
[1] = target: T1, COX-I (purified cyclooxygenase Type 1) (Ovis aries, UniProt P05979); assay: COX inhibition assay, purified cyclooxygenase (Type 1); format: biochemical, ram; conditions: for COX-I inhibition: FIG. 5
T1 construct: purified cyclooxygenase from ram seminal vesicles; from tissue; host or cells: ram seminal vesicles
T1 sequence (P05979 25-600): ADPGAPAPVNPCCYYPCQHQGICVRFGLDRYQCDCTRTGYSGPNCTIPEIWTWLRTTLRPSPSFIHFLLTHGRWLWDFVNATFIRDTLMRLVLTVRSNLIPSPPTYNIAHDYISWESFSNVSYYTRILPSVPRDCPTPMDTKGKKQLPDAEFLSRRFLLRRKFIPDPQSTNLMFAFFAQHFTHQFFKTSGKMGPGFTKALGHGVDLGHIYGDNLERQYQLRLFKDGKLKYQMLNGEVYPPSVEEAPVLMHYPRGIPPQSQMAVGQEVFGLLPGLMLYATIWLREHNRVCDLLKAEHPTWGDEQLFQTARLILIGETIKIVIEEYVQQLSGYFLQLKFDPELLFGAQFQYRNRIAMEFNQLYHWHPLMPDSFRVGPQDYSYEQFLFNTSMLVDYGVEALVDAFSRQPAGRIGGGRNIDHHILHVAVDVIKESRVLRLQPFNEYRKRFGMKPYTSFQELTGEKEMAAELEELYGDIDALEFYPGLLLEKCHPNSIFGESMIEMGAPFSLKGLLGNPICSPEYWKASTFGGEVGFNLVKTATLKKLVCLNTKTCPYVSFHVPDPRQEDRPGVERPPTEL

[2] = test system: cGMP PDE; assay: cGMP PDE inhibition assay, enzyme purified from HT-29 cultured tumor cells; format: biochemical, human
Protocol: The mixture is incubated at 30° C. for 10 minutes with isolated PDE of this invention. Reactions are terminated, for example, by boiling the reaction mixture for 75 seconds. After cooling on ice, 100 μl of 0.5 mg/ml snake venom (O. Hannah venom available from Sigma) is added and incubated for 10 minutes at 30° C. This reaction is then terminated by the addition of an alcohol, e.g. 1 ml of 100% methanol. Assay samples are applied to 1 ml Dowex 1-X8 column; and washed with 1 ml of 100% methanol. The amount of radioactivity in the breakthrough and the wash from the column is combined and measured with a scintillation counter. The degree of phosphodiesterase inhibition is determined by calculating the amount of radioactivity in drug-treated reactions and comparing against a control sample (a reaction mixture lacking the tested compound but with drug solvent).

[3] = test system: HT-29 cells; assay: Growth inhibition of HT-29 cells; format: cell-based, human
[4] = test system: SW-480 colon adenocarcinoma cells; assay: Apoptosis inducing activity, fold induction (fold stimulation, DNA fragmentation ELISA); conditions: for fold induction at 100 µM: Homo sapiens, SW480, read-out: Fold induction of apoptosis at 100 μM, 100 μM
[5] = target: T2, PDE peak A (PDE5) (Homo sapiens, UniProt O76074); assay: Inhibition of cGMP hydrolysis by PDE peak A from SW480 cells; format: biochemical
T2 construct: approximately four hundred million SW480 cells at confluence were scraped; endogenous in cells; host or cells: SW480 human colon adenocarcinoma cells (DEAE-Trisacryl M fraction)

[6] = test system: PDE peak B (novel cGMP-specific phosphodiesterase); assay: Inhibition of cGMP hydrolysis by PDE peak B (novel cGMP-specific PDE) from SW480 cells; format: biochemical, human; conditions: for Km: absence of cAMP
[7] = test system: HT-29 cells (cAMP level); assay: cAMP production in cultured HT-29 cells (radioimmunoassay); format: cell-based, human; conditions: 30 minutes
[8] = test system: PDE peak B (novel cGMP-specific phosphodiesterase); conditions: cited from earlier work
[9] = target: native bovine PDE5; conditions: read-out: Kd (cGMP binding, native bovine PDE5); cited from earlier work
[10] = test system: premalignant lesions in mammary gland organ culture; assay: Inhibition of premalignant lesions in mammary gland organ culture; format: cell-based, mouse; conditions: FIG. 17
Protocol: Test compounds identified by the above methods can be tested for antineoplastic activity by their ability to inhibit the incidence of preneoplastic lesions in a mammary gland organ culture system.
For example, female BALB/c mice can be treated with a combination of estradiol and progesterone daily, in order to prime the glands to be responsive to hormones in vitro. The animals are sacrificed and thoracic mammary glands are excised aseptically and incubated for ten days in growth media supplemented with insulin, prolactin, hydrocortisone, and aldosterone. DMBA (7,12-dimethylbenz(a)anthracene) is added to medium to induce the formation of premalignant lesions. Fully developed glands are then deprived of prolactin, hydrocortisone, and aldosterone, resulting in the regression of the glands but not the premalignant lesions.
The test compound is dissolved in DMSO and added to the culture media for the duration of the culture period. At the end of the culture period, the glands are fixed in 10% formalin, stained with alum carmine, and mounted on glass slides. […]
The extent of the area occupied by the mammary lesions can be quantitated by projecting an image of the gland onto a digitation pad. […] The space covered by each of the unregressed structures is also outlined on the digitization pad and quantitated by the computer.

[11] = test system: [H][C@@]12COP(=O)(O)O[C@@]1([H])[C@@H](O)[C@H](n1cnc3c(=O)[nH]c(N)nc31)O2; assay: purified protein, by the assay type; conditions: 30.0 °C
[12] = Homo sapiens, HT-29; read-out: Growth % Inhibition at 100 μM

In the case of `CCN(CC)CCSC12CC(=O)OC1(C)/C(=C/c1ccc(S(C)(=O)=O)cc1)c1ccc(F)cc12` (racemic) [A, rac-threo-(E)-1-(N,N'-diethylaminoethanethio)-1-(butan-1',4'-olido)-[3',4':1,2]-6-fluoro-2-methyl-3-(p-methylsulfonylbenzylidene)-indan], the inhibition at 100 µM [1] is reported as less than 25%, the “cGMP PDE % Inhibition at 10 μM” value [2] is reported as less than 25% and the inhibition at 100 µM [3, 12] is reported as 68%. The fold induction at 100 µM [4] was less than 2.
Compound `CC(=O)NC(CSC12CC(=O)OC1(C)/C(=C/c1ccc(S(C)(=O)=O)cc1)c1ccc(F)cc12)C(=O)O` (racemic) [D, rac-(E)-1-(butan-1',4'-olido)-[3',4':1,2]-6-fluoro-2-methyl-3-(p-methylsulfonylbenzylidene)-1S-indanyl-N-acetylcysteine] has an inhibition at 100 µM [1] of less than 25% and an inhibition at 100 µM [3, 12] of 78%.
`CCCCCC[C@H]([C@H](C)O)n1cnc2c(N)ncnc21` (relative stereo) [EHNA] showed an IC50 [5] greater than 100 µM, an IC50 ([6]; cGMP hydrolysis, 0.25 μM 3H-cGMP) of 3.7 µM and a fold induction at 100 µM [4] of less than 2.
With `COc1cc(/C=C2/C(C)=C(CC(=O)O)c3cc(F)ccc32)cc(OC)c1OC` [B, (Z)-5-Fluoro-2-methyl-1-(3,4,5-trimethoxybenzylidene)-3-acetic acid] the “COX-I inhibition” value [1] was “neither test compound B and E significantly inhibit COX-I”, the “cGMP PDE % Inhibition at 10 μM” value [2] was less than 25% and the “cGMP PDE inhibition at 20 μM” value ([2]; 20 μM, FIG. 8) was “greater than 50%”. The fold induction at 100 µM [4] was 3.4.
In the case of `CC1=C(CC(=O)O)c2cc(F)ccc2/C1=C\c1ccc(Cl)cc1` [Compound C, (Z)-5-Fluoro-2-methyl-1-(p-chlorobenzylidene)-3-acetic acid], the “cGMP PDE % Inhibition at 10 μM” value [2] is reported as less than 25% and the inhibition at 100 µM [3, 12] is reported as 80%.
`O=C(O)C1CCN(c2nc(NCc3ccc4c(c3)OCO4)c3cc(Cl)ccc3n2)CC1` [Compound E4021] showed an inhibition at 100 µM ([3]; Homo sapiens, HT-29, read-out: Growth % Inhibition at 100 μM) of less than 50%.
For `COc1cc(/C=C2/C(C)=C(CC(=O)NCc3ccccc3)c3cc(F)ccc32)cc(OC)c1OC` [Compound E, (Z)-5-Fluoro-2-methyl-1-(3,4,5-trimethoxybenzylidene)-3-indenylacetamide, N-benzyl], the “mode of inhibition of peak A” value [5] was “competitively inhibited”, the “mode of inhibition of peak B” value [6] was “competitively inhibited” and the “COX-I inhibition” value [1] was “neither test compound B and E significantly inhibit COX-I”. For the same compound, the “apoptosis-inducing or growth-inhibiting properties” value ([4]; neoplastic cells) was “precisely the opposite”.
For `CC1(C)C(=O)Nc2ccc(C3=NNC(=O)CC3)cc21` [Indolidan], the “sensitivity of peak B / novel PDE to inhibitor” value [6] was “insensitive”.
For `Clc1cccc(Nc2nnc(-c3ccccc3)c3ccccc23)c1` [MY5445, 1-(3-chloroanilino)-4-phenyphthalazine], the inhibition at 100 µM [1] was 94%.
In the case of `COc1ccc(C2CNC(=O)C2)cc1OC1CCCC1` (stereo not shown) [Rolipram], the “sensitivity of peak B / novel PDE to inhibitor” value [6] is reported as “insensitive” and the “effect on cAMP level” value [7] is reported as “increased cAMP”.
In the case of `CCCc1nn(C)c2c(=O)[nH]c(-c3cc(S(=O)(=O)N4CCN(C)CC4)ccc3OCC)nc12` [Sildenafil], the “inhibition of peak A activity” value [5] is given as “inhibited activity of peak A” and the “effect on new cGMP-specific PDE (words, '375 application)” value [8] is given as “little relative effect”.
For `CCOC(=O)C1=C[C@]2(CC)CCCN3CCc4c(n1c1ccccc41)[C@@H]32` [Vinpocetine], the “sensitivity of peak B / novel PDE to inhibitor” value [6] was “insensitive”.
In the case of `CCCOc1ccccc1-c1nc2nn[nH]c2c(=O)[nH]1` [Zaprinast], the “sensitivity of peak B / novel PDE to inhibitor” value [6] is reported as “reduced sensitivity to inhibition; also recorded: zaprinast-insensitive”.
In the case of `Nc1nc2c(ncn2[C@@H]2O[C@@H]3COP(=O)(O)O[C@H]3[C@H]2O)c(=O)[nH]1` [cGMP, cyclic guanosine 3',5'-monophosphate], the Km ([6]; read-out: Km of peak B for cGMP (increasing slope)) is given as less than 1 µM, the Km ([6]; read-out: apparent Km of peak B for cGMP (first, decreasing part of Eadie-Hofstee plot)) is given as 8.4 µM and the Kd [9] is given as 1.3 µM.
With `CC1=C(CC(=O)O)c2cc(F)ccc2/C1=C\c1ccc([S+](C)[O-])cc1` (stereo not shown) [sulindac] the “inhibition of premalignant lesions” value [10] was “effectively inhibit the formation of premalignant lesions”.
Compound PDE peak A (PDE5) (Homo sapiens) has a Km [11] of 1.07 µM and a Vmax [11] of 0.16 nmol/min/mg.
